Experimental data reported in patent publication US9168243B2, “Pharmaceutical compositions comprising 8-substituted dibenzylbutyrolactone lignans” (priority 2010, dated 2015).

Columns and labels:
Type in all cases: cell-based
[1] = system: Akt; assay: Confocal microscopy of Akt localization; details: androgen-deprived LNCaP; 100 μM NTG, 2 hours
Experimental: After treatments, the cells cultured on coverslips were washed with PBS and fixed with 3% paraformaldehyde for 15 minutes at room temperature. The samples were permeabilized and blocked for one hour in 3% BSA 0.1% Tween in PBS. Akt was labeled with rabbit anti-Akt antibody (Cell signaling) and Alexa 546-conjugated anti-rabbit secondary antibody (Molecular Probes). After washing with PBS, the samples were mounted with DAPI Vectashield (Vector Laboratories) and viewed by Zeiss LSM 510 META laser-scanning confocal microscope (63× oil objective, 543 nm excitation).
LNCaP cells (+/−1 nM androgen) were treated with 0-100 μM enterolactone (ENL), matairesinol (MAT) or NTG for 1 hour prior to preparation of total cell lysates (FIG. 4A). The relative decrease in pAkt/Akt ratio was quantified from western blot analysis with Akt (60 kDa) and phospho-Akt(ser473) (Mean±SEM; n=4; Student's t-test *p<0.05, **p<0.01). Alternatively, androgen-deprived LNCaP cells were incubated with 100 μM NTG for 2 hours, fixed and labeled with Akt antibody followed by Alexa 546-conjugated secondary antibody. The samples were viewed at LSM 510 confocal microscope (63× oil objective, 543 nm excitation) (FIG. 4B). […] The western blot analysis with Akt, phospho-Akt(ser473), GSK-3β and phospho-GSK-3β(ser9) was quantified. […]

[2] = system: insulin receptor (IR) β-subunit and IGF-I receptor (IGF-IR) β-subunit; assay: Immunoprecipitation of IRβ and IGF-IRβ after insulin or IGF-I stimulation, Western blot for phospho-tyrosine and PI3K p85α; details: serum-starved LNCaP; 40-100 μM NTG 2 hours before 10 nM insulin or IGF-I, 10 minutes
Experimental: (§1) The cells were treated with 0-100 μM lignans or solvent control for indicated times. Human recombinant isoleucin-zipper TRAIL (izTRAIL; kindly provided by Professor Henning Walczak) was used at 0-1 μg/ml with an incubation time of 20 hours. Prior to 10 minutes treatment with 10 nM IGF-1 (Millipore) or 10 nM insulin (Sigma) the cells were serum-starved (1% FCS) overnight. EGFR stimulation was performed on serum-starved cells with 20 ng/ml EGF for 5 minutes (a kind gift from Professor Klaus Elenius laboratory).
The cells cultured on […] were placed on ice and rinsed with cold PBS. The cells were lysed in 1 ml of cold lysis buffer (50 mM Tris pH 7.4, 150 mM NaCl, 1 mM EDTA, 1.25% CHAPS, 1 mM Na3OV4, 2 mM NaF, 10 mM sodium pyrophosphate and complete protease inhibitor cocktail [Roche Applied Science]) for 10 minutes. […]
To further investigate the specificity of this inhibitory effect, LNCaP cells were serum-starved overnight, treated with 0-100 μM NTG for 2 hours, and activated for 10 minutes with 10 nM insulin or IGF-I, after which insulin receptor (IR) β-subunit and IGF-I receptor (IGF-IR) β-subunit were immunoprecipitated (FIG. 5B). The precipitated complexes were analyzed by Western blotting for presence of PI3K p85α (85 kDa), IRβ (95 kDa), IGF-IRβ (95 kDa) and phospho-tyrosine and the expression of PI3K p85α, Akt and phospho-Akt(ser473) was probed from the lysates. […]

[3] = system: EGF receptor (EGFR); assay: EGF-induced EGFR tyrosine 1068 phosphorylation, Western blot; details: LNCaP; pretreatment with 100 μM NTG; 20 ng/ml EGF, 5 minutes
Experimental: as §1
Whole cell lysates were prepared by lysing floating and attached cells in Laemmli sample buffer and boiling the samples for 10 minutes. Proteins were separated by SDS-PAGE and transferred on PVDF membrane (Millipore). Western blotting was performed using antibodies against Akt, phospho-Akt (Ser473), GSK-3β, phospho-GSK-3β (Ser9) and phospho-EGF receptor Tyr(1068) (Cell Signalling Technology), Actin (clone AC-40; Sigma-Aldrich), PI3K p85α (clone 4/PI3-Kinase; BD Pharmingen), EGF receptor, Insulin receptor β and IGF-I receptor β (Santa Cruz Biotechnology), and Phospho-tyrosine (clone 4G10; Millipore). HRP-conjugated secondary antibodies were from Southern Biotechnology Associates, Promega, and Amersham Biosciences. The results were visualized using the ECL method (Amersham Biosciences) on x-ray film. […]

`COc1cc(CC2COC(=O)C2(O)Cc2ccc(O)c(OC)c2)ccc1O` (stereo not shown) [NTG, Nortrachelogenin] was tested, and the “cellular localization of Akt” value [1] was “increases cytoplasmic localization of Akt”, the “amount of receptor-associated PI3K p85” value [2] was “clearly reduced” and the “receptor tyrosine phosphorylation of IR and IGF-IR” value [2] was “decreased”. For the same compound, the “EGF-induced tyrosine phosphorylation of EGFR” value [3] was “attenuated the EGF-induced tyrosine phosphorylation of EGFR”.
